Measurements taken from patent publication US20090197949A1, “ANTITUMOR METHODS AND COMPOSITIONS COMPRISING SESQUITERPENE DERIVATIVES” (F.P.L. Pharma, Inc., priority 2001, published 2009).
Where two headings read alike, the source gives them in different places.

Experiments:
tumor cell lines = test: In vitro cytotoxic/antitumoral activity against tumor cell lines (panel statement); type: cell-based
Procedure: Cells were plated at a density of 5×10^3 cells per well in 96-well microplates (Nunclon™, Nunc) in 100 μl of culture medium and were allowed to adhere for 16 h before treatment. Then, 100 μl of culture medium containing essential oil of Pinus divaricata, essential oil of Thuya occidentalis, essential oil of Abies balsamea, α-humulene (Sigma-Aldrich); isocaryophyllene (Sigma-Aldrich) were added and incubated at 37° C. for 48 h. All compounds were dissolved in ethanol and the final concentration of ethanol in the culture medium was maintained at 0.5% (v/v). The effect of essential oils and compounds of oil on the proliferation of tumour cells was assessed using resazurin reduction test.
The resazurin reduction test (RRT) was carried out according to the protocol described here. Briefly, plates were rinsed by 200 μl PBS (37° C., Gibco) at 37° C. using an automatic microplate washer (Cell Wash™, Labsystems, Helsinki, Finland) and emptied by overturning on absorbent toweling. […] The plates were incubated 1 h at 37° C. in an humidified atmosphere with 5% of CO2 for fluorescence development by living cells. Fluorescence was then measured on the automated 96-well plate reader Fluoroskan Ascent FL™ (Labsystems) using an excitation wavelength of 530 nm and an emission one of 590 nm.

[1] = system: glutathione-S-transferase; settings: Zheng et al. 1992; cited from earlier work
[2] = system: gastric mucosal injuries induced by necrotizing agents; settings: necrotizing agents such as absolute ethanol and HCl; Tambe et al. 1996; cited from earlier work
[3] = system: about ten tumor cell lines; settings: Kaneda et al. 1992; cited from earlier work
[4] = system: A-549 human lung carcinoma; test: cells; type: cell-based
From the text: (§1) Normal human fibroblasts were purchased from Biopredic International (Rennes, France). This frozen culture was obtained from a person abdominal surgical waste and the cells used in this work was from the 7th to the 12th passage of the culture. M4Beu and […], human melanoma cell lines, was established in the laboratory of Dr. J. F. Doré (Institut National de la Santé et de la Recherche Médicale-INSERM, Unit 218, Lyon, France) from metastatic biopsy specimens (Thomasset, N. et al.; British Journal of Cancer, 46, 58-66 (1982)). Murine colon carcinoma cell line CT-26 was obtained from Dr I. J. Fidler (University of Texas M.D. Anderson Cancer Center, Houston). Breast cancer adenocarcinoma MCF-7 and MDA-MB-231, prostatic adenocarcinoma PC-3, ovary adenocarcinoma SK-OV-3, lung carcinoma A-549, colon adenocarcinoma DLD-1, human cell lines and melanoma 1B16 and fibroblast L-929 murine cell lines were purchased from American Type of Culture Collection (ATCC) or the European Collection of Cell Cultures (ECACC; Salisbury, United-Kingdom). Stock cell cultures were maintained as monolayers in 75-cm^2 culture flasks in GlutamaxTM Eagle's minimum essential medium with Earle's salts (Gibco-BRL, Paisley, Scotland) supplemented with 10% foetal calf serum (Sigma), and 5 ml of a 100× solution of vitamins (Gibco), 5 ml of 100 mM sodium pyruvate (Gibco), 5 ml of 100× non-essential amino acids (Gibco) and 2 mg of gentamicin base (Gibco). Cells were grown in a humidified 37° C. incubator containing 5% CO2. Cells were plated at a density of 5×10^3 cells per well in 96-well microplates (NunclonTM, Nunc) in 100 μl of culture medium and were allowed to adhere for 16 h before treatment. Then, 100 μl of culture medium containing essential oil of Pinus divaricata, essential oil of Thuya occidentalis, essential oil of Abies balsamea, α-humulene (Sigma-Aldrich); isocaryophyllene (Sigma-Aldrich) were added and incubated at 37° C. for 48 h. All compounds were dissolved in ethanol and the final concentration of ethanol in the culture medium was maintained at 0.5% (v/v). The effect of essential oils and compounds of oil on the proliferation of tumour cells was assessed using resazurin reduction test. Resazurin was recently identified as the alamar Blue dye (O'Brien, J. et al.; European Journal of Biochemistry, 267, 5421-6, (2000)). The resazurin reduction test (RRT) was carried out according to the protocol described here. Briefly, plates were rinsed by 200 μl PBS (37° C., Gibco) at 37° C. using an automatic microplate washer (Cell WashTM, Labsystems, Helsinki, Finland) and emptied by overturning on absorbent toweling. Then, 150 μl of a 25 μg/ml solution of resazurin in RPMI 1640 without Phenol red was added in each well using an automatic microvolume dispenser (Multidrop 384TM Labsystems). The plates were incubated 1 h at 37° C. in an humidified atmosphere with 5% of CO2 for fluorescence development by living cells. Fluorescence was then measured on the automated 96-well plate reader Fluoroskan Ascent FLTM (Labsystems) using an excitation wavelength of 530 nm and an emission one of 590 nm. The fluorescence is proportional to the number of living cells in the well and IC50 (drug concentration required to inhibit cell proliferation by 50%) was calculated from the curve of concentration-dependent survival percentage, defined as the fluorescence in experimental wells as a percentage of that in control wells, with blank values subtracted. The essentials oil of jack pine (Pinus banksiana or Pinus divaricata), eastern white cedar (Thuya occidentalis), balsam fir (Abies balsamea), were evaluated for their cytotoxic activity against various tumor cell lines (Table 1). The cell growth inhibition were measured by the fluorescence induced by the metabolic transformation of resazurin in resorufin. The fluorescence is proportional to living cells and allow to evaluate the concentration inhibiting 50% of cell growth (IC50).

[5] = system: DLD-1 human colon adenocarcinoma; test: cells; type: cell-based
From the text: as §1

M4BEU human melanoma = test: cells; type: cell-based
From the text: as §1

[6] = system: MCF-7 human breast adenocarcinoma; test: cells; type: cell-based
From the text: as §1

[7] = system: PC-3 human prostatic adenocarcinoma; test: cells; type: cell-based
From the text: as §1

Normal human fibroblasts = test: In vitro survival assay, resazurin reduction test, normal fibroblasts; type: cell-based; settings: Fibroblast
From the text: (§2) Normal human fibroblasts were purchased from Biopredic International (Rennes, France). This frozen culture was obtained from a person abdominal surgical waste and the cells used in this work was from the 7th to the 12th passage of the culture. M4Beu and […], human melanoma cell lines, was established in the laboratory of Dr. J. F. Doré (Institut National de la Santé et de la Recherche Médicale-INSERM, Unit 218, Lyon, France) from metastatic biopsy specimens (Thomasset, N. et al.; British Journal of Cancer, 46, 58-66 (1982)). Murine colon carcinoma cell line CT-26 was obtained from Dr I. J. Fidler (University of Texas M.D. Anderson Cancer Center, Houston). Breast cancer adenocarcinoma MCF-7 and MDA-MB-231, prostatic adenocarcinoma PC-3, ovary adenocarcinoma SK-OV-3, lung carcinoma A-549, colon adenocarcinoma DLD-1, human cell lines and melanoma 1B16 and fibroblast L-929 murine cell lines were purchased from American Type of Culture Collection (ATCC) or the European Collection of Cell Cultures (ECACC; Salisbury, United-Kingdom). […] The effect of essential oils and compounds of oil on the proliferation of tumour cells was assessed using resazurin reduction test. […] The plates were incubated 1 h at 37° C. in an humidified atmosphere with 5% of CO2 for fluorescence development by living cells. Fluorescence was then measured on the automated 96-well plate reader Fluoroskan Ascent FLTM (Labsystems) using an excitation wavelength of 530 nm and an emission one of 590 nm. […] The essentials oil of jack pine (Pinus banksiana or Pinus divaricata), eastern white cedar (Thuya occidentalis), balsam fir (Abies balsamea), were evaluated for their cytotoxic activity against various tumor cell lines (Table 1). The cell growth inhibition were measured by the fluorescence induced by the metabolic transformation of resazurin in resorufin. […]

[8] = system: L-929 mouse subcutaneous connective tissue (fibroblast); test: In vitro survival assay, resazurin reduction test, L-929; type: cell-based; settings: L929, L-929, 48 h
From the text: as §2, with “Houston).” for “Houston). Breast cancer adenocarcinoma MCF-7 and MDA-MB-231, prostatic adenocarcinoma PC-3, ovary adenocarcinoma SK-OV-3, lung carcinoma A-549, colon adenocarcinoma DLD-1, human cell lines and melanoma 1B16 and fibroblast L-929 murine cell lines were purchased from American Type of Culture Collection (ATCC) or the European Collection of Cell Cultures (ECACC; Salisbury, United-Kingdom).”, “1).” for “1). The cell growth inhibition were measured by the fluorescence induced by the metabolic transformation of resazurin in resorufin.”

[9] = system: CT-26 mouse colon carcinoma; test: In vitro survival assay, resazurin reduction test, CT-26; type: cell-based; settings: CT26, CT-26, 48 h
From the text: as §2, with “Houston).” for “Houston). Breast cancer adenocarcinoma MCF-7 and MDA-MB-231, prostatic adenocarcinoma PC-3, ovary adenocarcinoma SK-OV-3, lung carcinoma A-549, colon adenocarcinoma DLD-1, human cell lines and melanoma 1B16 and fibroblast L-929 murine cell lines were purchased from American Type of Culture Collection (ATCC) or the European Collection of Cell Cultures (ECACC; Salisbury, United-Kingdom).”, “1).” for “1). The cell growth inhibition were measured by the fluorescence induced by the metabolic transformation of resazurin in resorufin.”

[10] = A549, A-549, 48 h, read-out: IC50
[11] = MCF7, MCF-7, 48 h, read-out: IC50

IC50 [4, 10] [µM]	IC50 ([5]; DLD-1, 48 h, read-out: IC50) [µM]	IC50 (M4BEU human melanoma; 48 h, read-out: IC50) [µM]	IC50 [6, 11] [µM]	IC50 ([7]; PC-3, 48 h, read-out: IC50) [µM]	SMILES	antitumoral activity in vitro, evaluated by the Applicants (tumor cell lines)	glutathione-S-transferase activity in vivo [1]	gastric cytoprotection effect [2]	activity in vitro against about ten tumor cell lines [3]	IC50 ([4]; A549, read-out: cytotoxic activity) [µM]	IC50 ([5]; DLD-1, read-out: cytotoxic activity) [µM]	IC50 (M4BEU human melanoma; read-out: cytotoxic activity) [µM]	IC50 ([6]; MCF7, read-out: cytotoxic activity) [µM]	IC50 ([7]; read-out: cytotoxic activity) [µM]	IC50 (Normal human fibroblasts; 48 h, read-out: IC50) [µM]	IC50 [8] [µM]	IC50 [9] [µM]	IC50 (Normal human fibroblasts; fibroblastic normal cell, Table 2, read-out: activity against fibroblastic normal cell) [µM]	IC50 (tumor cell lines; all tumor cells tested, Table 2) [µM]
					C=C1CC/C=C(\C)CC[C@@H]2[C@@H]1CC2(C)C [β-caryophyllene]	no significant bioactivity	increasing of gluthatione-S-transferase activity	inhibition of gastric mucosal injuries											
					C=C1CC[C@H]2O[C@]2(C)CC[C@@H]2[C@@H]1CC2(C)C [β-caryophyllene oxide]	no significant bioactivity	increasing of gluthatione-S-transferase activity		inactive										
68 ± 2	71 ± 2	55 ± 2	73 ± 2	73 ± 2	CC1=CCCC(C)=CCC(C)(C)C=CC1 [α-humulene, 2,6,6,9-Tetramethyl-1,4,8-cycloundecatriene]		increasing of gluthatione-S-transferase activity			< 100	< 100	< 100	< 100	< 100	85 ± 5	50.2 ± 0.3	53 ± 1		
59 ± 4	124 ± 17	43 ± 3	84 ± 6	87 ± 8	C=C1CCC=C(C)CC[C@H]2[C@@H]1CC2(C)C (relative stereo) [Isocaryophyllene, cis-4,11,11-Trimethyl-8-methylenebicyclo[7.2.0]undec-4-ene]										124 ± 15	34 ± 0.8	46 ± 1	> 100	< 100
